Values after ≈ are worked out from the molar mass of the structure shown.
Tested on: Staphylococcus isolates
Test: Oxacillin Minimum Inhibitory Concentration (Ox MIC)
Type: cell-based, S. aureus and other Staphylococcus spp.

Cc1onc(-c2ccccc2)c1C(=O)N[C@@H]1C(=O)N2[C@@H]1SC(C)(C)[C@@H]2C(=O)O [Oxacillin]
MIC (Staphylococcus, Pos Control GP1217): > 16 µg/mL
MIC (Staphylococcus, Table 14, S. hemoliticus, 1 isolate): ≤ 0.25 µg/mL
MIC (Staphylococcus, Table 14, S. hyicus-hyicus, 1 isolate): ≤ 0.25 µg/mL
MIC (Staphylococcus, Table 14, S. intermedius, 1 isolate): ≤ 0.25 µg/mL
MIC (Staphylococcus, clinical isolate GP21, determined at the collection site): < 0.25 µg/mL
MIC (Staphylococcus, clinical isolate GP22, determined at the collection site): 0.5 µg/mL (≈ 1.25 µM)
MIC (Staphylococcus, clinical isolate GP23, determined at the collection site): < 0.25 µg/mL
MIC (Staphylococcus, clinical isolate GP24, determined at the collection site): > 16 µg/mL
MIC (Staphylococcus, clinical isolate GP25, determined at the collection site): > 16 µg/mL
MIC (Staphylococcus, clinical isolate GP26, determined at the collection site): < 0.25 µg/mL
MIC (Staphylococcus, clinical isolate GP27, determined at the collection site): < 0.25 µg/mL
MIC (Staphylococcus, clinical isolate GP28, determined at the collection site): 1 µg/mL (≈ 2.49 µM)
MIC (Staphylococcus, clinical isolate GP29, determined at the collection site): > 16 µg/mL
MIC (Staphylococcus, clinical isolate GP30, determined at the collection site): < 0.25 µg/mL
MIC (Staphylococcus, clinical isolate GP31, determined at the collection site): > 16 µg/mL
MIC (Staphylococcus, clinical isolate GP32, determined at the collection site): < 0.25 µg/mL
MIC (Staphylococcus, clinical isolate GP33, determined at the collection site): > 16 µg/mL
MIC (Staphylococcus, clinical isolate GP34, determined at the collection site): < 0.25 µg/mL
MIC (Staphylococcus, clinical isolate GP35, determined at the collection site): > 16 µg/mL
MIC (Staphylococcus, clinical isolate GP36, determined at the collection site): < 0.25 µg/mL
MIC (Staphylococcus, clinical isolate GP37, determined at the collection site): > 16 µg/mL
MIC (Staphylococcus, clinical isolate GP39, determined at the collection site): < 0.25 µg/mL
MIC (Staphylococcus, clinical isolate GP40, determined at the collection site): < 0.25 µg/mL
MIC (Table 14, ATCC MRSA, first isolate): 8 µg/mL (≈ 19.9 µM)
MIC (Table 14, ATCC MRSA, second isolate): 16 µg/mL (≈ 39.9 µM)
MIC (Table 14, ATCC MSSA, 1 isolate): 1 µg/mL (≈ 2.49 µM)
MIC (Table 14, ATCC MSSA, group of 4 isolates): 0.5 µg/mL (≈ 1.25 µM)
MIC (Table 14, ATCC MSSA, group of 6 isolates): ≤ 0.25 µg/mL
MIC (Table 14, Clinical MRSA, group of 8 isolates): 16 µg/mL (≈ 39.9 µM)
MIC (Table 14, Clinical MRSA, group of 13 isolates): 8 µg/mL (≈ 19.9 µM)
MIC (Table 14, Clinical MRSA, group of 14 isolates, provided by an outside laboratory): 4 µg/mL (≈ 9.96 µM)
MIC (Table 14, Clinical MRSA, group of 107 isolates): > 16 µg/mL
MIC (Table 14, Clinical MSSA, group of 8 isolates): 2 µg/mL (≈ 4.98 µM)
MIC (Table 14, Clinical MSSA, group of 13 isolates): 1 µg/mL (≈ 2.49 µM)
MIC (Table 14, Clinical MSSA, group of 28 isolates): 0.5 µg/mL (≈ 1.25 µM)
MIC (Table 14, Clinical MSSA, group of 99 isolates): ≤ 0.25 µg/mL
MIC (Table 14, S. epidermidis, 1 isolate (mecA(+)), first): 4 µg/mL (≈ 9.96 µM)
MIC (Table 14, S. epidermidis, 1 isolate (mecA(+)), second): > 16 µg/mL
MIC (Table 14, S. epidermidis, group of 2 isolates (mecA(−))): ≤ 0.25 µg/mL
MIC (Table 14, S. hominis, 1 isolate): ≤ 0.25 µg/mL
MIC (Table 14, S. saprophyticus, 1 isolate): 0.5 µg/mL (≈ 1.25 µM)
MIC (Table 14, S. simulans, 1 isolate): ≤ 0.25 µg/mL
MIC (Table 14, S. warneri, 1 isolate): ≤ 0.25 µg/mL
Ox MIC (specimen 10 (mecA PCR Neg)): 8 µg/mL
Ox MIC (specimen 101 (mecA PCR Neg)): 4 µg/mL
Ox MIC (specimen 102 (mecA PCR Pos)): 4 µg/mL
Ox MIC (specimen 103 (mecA PCR Neg)): 4 µg/mL
Ox MIC (specimen 104 (mecA PCR Neg)): 2 µg/mL
Ox MIC (specimen 105 (mecA PCR Neg)): 2 µg/mL
Ox MIC (specimen 106 (mecA PCR Neg)): 2 µg/mL
Ox MIC (specimen 139 (mecA PCR Pos)): 4 µg/mL
Ox MIC (specimen 140 (mecA PCR Pos)): 16 µg/mL
Ox MIC (specimen 142 (mecA PCR Pos)): 4 µg/mL
Ox MIC (specimen 145 (mecA PCR Neg)): 4 µg/mL
Ox MIC (specimen 148 (mecA PCR Pos)): 4 µg/mL
Ox MIC (specimen 155 (mecA PCR Neg)): 4 µg/mL
Ox MIC (specimen 164 (mecA PCR Neg)): 2 µg/mL
Ox MIC (specimen 178 (mecA PCR Pos)): 2 µg/mL
Ox MIC (specimen 188 (mecA PCR Pos)): 2 µg/mL
Ox MIC (specimen 270 (mecA PCR Pos)): <0.25 µg/mL
Ox MIC (specimen #99 (mecA PCR Pos), reported by outside laboratory): 4 µg/mL
Ox MIC (specimen #100 (mecA PCR Neg), reported by outside laboratory): 4 µg/mL
